From US10907187B2, “Fungal strains and methods of use” (DANISCO US INC., priority 2015, dated 2021)
Where two headings read alike, the source gives them in different places.

Assays:
Format in all cases: cell-based, Trichoderma reesei
[1] = system: T. reesei strain RLP37 NikM743T; test: Liquid medium fungicide screen, conidiospore germination in YEG; conditions: all concentrations tested (11.25, 22.5, 45 or 90 μM), overnight at 28° C.
Procedure: (§1) For use in liquid medium fungicide screens, conidiospores from T. reesei strains RLP37 and RLP37 NikM743T were harvested and diluted to a concentration of 10,000/ml. Equal numbers of spores were inoculated into liquid YEG medium (5 g/L yeast extract, 22 g/1 glucose. H2O) containing 0, 11.25, 22.5, 45 or 90 μM iprodione or fludioxonil and allowed to germinate overnight at 28° C. […] Furthermore, sensitivity of RLP37 and resistance of RLP37 NikM743T persisted when inoculation culture was scaled up to […].

T. reesei strain RLP37 [2] = test: as above; conditions: for germination and hyphal growth of conidiospores: 11.25 μM fungicide, overnight at 28° C., 10,000 spores/ml
Procedure: as §1

[3] = system: T. reesei strain RLP37 Nik^M743T; test: Agar (solid) medium fungicide screen, colony growth on Vogel's minimal medium with glucose; conditions: 11.25, 22.5, 45 or 90 μM, agar plates, 3 days at 32° C.
Procedure: (§2) For use in agar (solid) medium fungicide screens or selections, conidiospores from T. reesei strains RLP37 and RLP37 Nik^M743T were harvested and diluted to a concentration such that a known number of spores were plated per 10 cm plate containing nutrient agar Vogel's minimal medium with glucose (Vogel, Microbial Genet. Bull. 13:42-43 (1956); Vogel, Am. Nat. 98:435-446 (1964)). Equal numbers of spores for each strain were spread onto the surface of nutrient agar plates containing 0, 11.25, 22.5, 45 or 90 μM iprodione and allowed to grow for 3 days at 32° C. […] This mixed population of spores was spread onto Vogel's minimal medium agar containing 45 μM iprodione and allowed to grow for 3 days at 32° C. Colonies were counted and evaluated for presence of the nik1^M743T mutation by PCR and sequencing (Sequetech, Mountain View, Calif., USA), using the following primers: […]

T. reesei strain RLP37 [4] = test: as above; conditions: agar plates, 3 days at 32° C.
Procedure: as §2

Structure (SMILES)	germination and hyphal growth of conidiospores [1]	germination and hyphal growth of conidiospores (T. reesei strain RLP37 [2]; liquid YEG medium)	germination and growth of conidiospores (T. reesei strain RLP37 [2]; concentrations above 11.25 μM (22.5, 45 or 90 μM), liquid YEG medium, overnight at 28° C.)	germination and growth of conidiospores (T. reesei strain RLP37 [2])	colony growth [3]	colony growth (T. reesei strain RLP37 [4]; 45 μM and above)	colony growth (T. reesei strain RLP37 [4]; 11.25 and 22.5 μM)
N#Cc1c[nH]cc1-c1cccc2c1OC(F)(F)O2 [fludioxonil]	germinated and produced elongated hyphae	clear inhibition of hyphal growth	complete inhibition of germination and growth	–	–	–	–
CC(C)NC(=O)N1CC(=O)N(c2cc(Cl)cc(Cl)c2)C1=O [iprodione]	germinated and produced elongated hyphae	clear inhibition of hyphal growth	–	complete inhibition of germination and growth	grew similarly to colonies growing on nutrient agar plates without iprodione	failed to grow at all	failed to grow to any larger than the size of the tip of a pin
